Marks after values point to notes of the source that are not given here.
What was measured:
CATPO [1] = biological target: T1, CATPO (Scytalidium thermophilum (Humicola insolens), UniProt M4GGR5); test: Inhibition of catechol oxidation; assay type: biochemical; conditions: catechol oxidation by CATPO; catechol 1 to 100 mM; read-out: K i
CATPO E484A variant [2] = biological target: T2, CATPO E484A variant (Scytalidium thermophilum (Humicola insolens), UniProt M4GGR5, E503A); test: biochemical; conditions: catechol oxidation by E484A; read-out: K i
T2 sequence (M4GGR5 entry or part of it E503A): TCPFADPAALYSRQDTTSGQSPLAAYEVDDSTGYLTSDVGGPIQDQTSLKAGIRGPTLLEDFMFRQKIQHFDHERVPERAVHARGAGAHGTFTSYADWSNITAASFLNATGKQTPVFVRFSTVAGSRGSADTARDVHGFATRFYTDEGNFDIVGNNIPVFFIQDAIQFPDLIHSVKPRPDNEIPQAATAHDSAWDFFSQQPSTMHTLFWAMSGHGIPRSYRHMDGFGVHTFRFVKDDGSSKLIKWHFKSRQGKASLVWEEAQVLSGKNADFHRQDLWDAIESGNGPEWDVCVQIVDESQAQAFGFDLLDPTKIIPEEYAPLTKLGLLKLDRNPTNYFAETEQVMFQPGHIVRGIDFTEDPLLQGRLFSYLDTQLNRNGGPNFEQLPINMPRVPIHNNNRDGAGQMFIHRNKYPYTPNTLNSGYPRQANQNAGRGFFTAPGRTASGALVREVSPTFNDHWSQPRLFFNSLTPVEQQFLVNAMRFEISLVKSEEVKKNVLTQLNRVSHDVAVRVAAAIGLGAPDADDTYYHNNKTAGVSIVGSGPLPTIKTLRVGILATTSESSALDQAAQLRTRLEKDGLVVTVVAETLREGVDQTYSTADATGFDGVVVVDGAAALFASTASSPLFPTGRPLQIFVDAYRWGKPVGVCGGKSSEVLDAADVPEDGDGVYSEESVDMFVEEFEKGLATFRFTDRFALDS

CATPO E484D variant [3] = biological target: T3, CATPO E484D variant (Scytalidium thermophilum (Humicola insolens), UniProt M4GGR5, E503D); assay type: biochemical; conditions: for K m: pH 7.0 (ABTS pH 5.0), 60°C
T3 sequence (M4GGR5 entry or part of it E503D): as the sequence (M4GGR5 entry or part of it E503A) above

CATPO T188D variant [4] = biological target: T4, CATPO T188D variant (Scytalidium thermophilum (Humicola insolens), UniProt M4GGR5, T207D); assay type: biochemical; conditions: for K m: pH 7.0 (ABTS pH 5.0), 60°C
T4 sequence (M4GGR5 entry or part of it T207D): as the sequence (M4GGR5 entry or part of it E503A) above

CATPO [5] = biological target: T1, CATPO; test: Substrate-specificity analysis of the phenol oxidase activity; assay type: biochemical; conditions: for K m: pH 7.0 (ABTS pH 5.0), 60°C
CATPO E484D variant [6] = biological target: T3, CATPO E484D variant; test: biochemical; conditions: catechol oxidation by E484D; read-out: K i
CATPO T188A variant [7] = biological target: T5, CATPO T188A variant (Scytalidium thermophilum (Humicola insolens), UniProt M4GGR5, T207A); test: biochemical; conditions: catechol oxidation by T188A; read-out: K i
T5 sequence (M4GGR5 entry or part of it T207A): as the sequence (M4GGR5 entry or part of it E503A) above

CATPO T188F variant [8] = biological target: T6, CATPO T188F variant (Scytalidium thermophilum (Humicola insolens), UniProt M4GGR5, T207F); assay type: biochemical; conditions: for K m: pH 7.0 (ABTS pH 5.0), 60°C
T6 sequence (M4GGR5 entry or part of it T207F): as the sequence (M4GGR5 entry or part of it E503A) above

CATPO T188I variant = CATPO T188I variant (Scytalidium thermophilum (Humicola insolens), UniProt M4GGR5, T207I); assay type: biochemical; conditions: for K m: pH 7.0 (ABTS pH 5.0), 60°C
Chain of CATPO T188I variant (M4GGR5 entry or part of it T207I): as the sequence (M4GGR5 entry or part of it E503A) above

CATPO E484I variant [9] = biological target: T7, CATPO E484I variant (Scytalidium thermophilum (Humicola insolens), UniProt M4GGR5, E503I); assay type: biochemical; conditions: for K m: pH 7.0 (ABTS pH 5.0), 60°C
T7 sequence (M4GGR5 entry or part of it E503I): as the sequence (M4GGR5 entry or part of it E503A) above

CATPO T188A variant [10] = biological target: T5, CATPO T188A variant; assay type: biochemical; conditions: for K m: pH 7.0 (ABTS pH 5.0), 60°C
CATPO E484I variant [11] = biological target: T7, CATPO E484I variant; test: biochemical; conditions: catechol oxidation by E484I; read-out: K i
CATPO T188D variant [12] = biological target: T4, CATPO T188D variant; test: biochemical; conditions: catechol oxidation by T188D; read-out: K i
CATPO T188F variant [13] = biological target: T6, CATPO T188F variant; test: biochemical; conditions: catechol oxidation by T188F; read-out: K i
CATPO E484A variant [14] = biological target: T2, CATPO E484A variant; test: Substrate-specificity analysis of the phenol oxidase activity; assay type: biochemical; conditions: for K m: pH 7.0 (ABTS pH 5.0), 60°C
[15] = substrate: Oc1ccccc1O; test: Phenol oxidase activity (H2O2-independent) measured spectrophotometrically by product formation at pH 7.0, 60 C, Michaelis-Menten fit.; assay type: biochemical
Procedure: (§1) All inhibition assays were performed in triplicate.

[16] = substrate: Cc1ccc(O)c(O)c1; test: Spectrophotometric phenol oxidase assay without H2O2 at pH 7.0 and 60 °C, initial rates fitted to the Michaelis-Menten equation.; assay type: biochemical
Procedure: as §1

[17] = substrate: Oc1ccc(O)cc1; test: as above; assay type: biochemical
Procedure: as §1

[18] = substrate: CC(C)(C)c1ccc(O)c(O)c1; test: as above; assay type: biochemical
Procedure: as §1

[19] = substrate: CCn1c(=NN=c2sc3cc(S(=O)(=O)O)ccc3n2CC)sc2cc(S(=O)(=O)O)ccc21; test: purified protein, by the assay type; conditions: 60.0 °C

T1 sequence (M4GGR5 entry or part of it): as the sequence (M4GGR5 entry or part of it E503A) above

| Molecule | V max (CATPO E484D variant [3]) [mM/min] | k cat/K m (CATPO E484D variant [3]) | K m (CATPO E484D variant [3]) [mM] | V max (CATPO T188D variant [4]) [mM/min] | k cat/K m (CATPO T188D variant [4]) | K m (CATPO T188D variant [4]) [mM] | V max (CATPO [5]) [mM/min] | k cat/K m (CATPO [5]) | K m (CATPO [5]) [mM] | V max (CATPO T188F variant [8]) [mM/min] | k cat/K m (CATPO T188F variant [8]) | K m (CATPO T188F variant [8]) [mM] | V max (CATPO T188I variant) [mM/min] | k cat/K m (CATPO T188I variant) | Km [15] [mM] | kcat/Km [15] [M⁻¹ s⁻¹] | Km [16] [mM] | Km [17] [mM] | Km [18] [mM] | Km [19] [mM] | other results |
| --- | --- | --- | --- | --- | --- | --- | --- | --- | --- | --- | --- | --- | --- | --- | --- | --- | --- | --- | --- | --- | --- |
| CCn1c(=NN=c2sc3cc(S(=O)(=O)O)ccc3n2CC)sc2cc(S(=O)(=O)O)ccc21 [ABTS, 2,2′-azino-bis(3-ethylbenzthiazoline-6-sulfonic acid)] | 5500 ± 132 | 100 ± 10 s^−1 M^−1 (×10^2) | 53 ± 1.0 | 4000 ± 88 | 200 ± 25 s^−1 M^−1 (×10^2) | 55 ± 1.0 | 5620 ± 250 | 590 ± 20 s^−1 M^−1 (×10^2) | 50 ± 1.5 | 6600 ± 120 | 270 ± 25 s^−1 M^−1 (×10^2) | 45 ± 0.5 | 6000 ± 100 | 190 ± 18 s^−1 M^−1 (×10^2) | – | – | – | – | – | – | Ki (CATPO [1]): 11 ± 1 mM; Ki (CATPO E484A variant [2]): 96 ± 5.4 mM; Ki (CATPO E484D variant [6]): 12 ± 1.2 mM; Ki (CATPO T188A variant [7]): 12 ± 1.2 mM; K m (CATPO T188I variant): 48 ± 0.7 mM; V max (CATPO E484I variant [9]): 4600 ± 98 mM/min; k cat/K m (CATPO E484I variant [9]): 170 ± 10 s^−1 M^−1 (×10^2); K m (CATPO E484I variant [9]): 50 ± 0.5 mM; V max (CATPO T188A variant [10]): 5000 ± 100 mM/min; k cat/K m (CATPO T188A variant [10]): 90 ± 5 s^−1 M^−1 (×10^2); K m (CATPO T188A variant [10]): 52 ± 0.8 mM; Ki (CATPO E484I variant [11]): 81 ± 8 mM; Ki (CATPO T188D variant [12]): 81 ± 1 mM; Ki (CATPO T188F variant [13]): 84 ± 7 mM; V max (CATPO E484A variant [14]): 8600 ± 220 mM/min; k cat/K m (CATPO E484A variant [14]): 300 ± 10 s^−1 M^−1 (×10^2); K m (CATPO E484A variant [14]): 46 ± 1.0 mM |
| Oc1ccccc1O [Catechol, catechol] | 23000 ± 1500 | 2100 ± 105 s^−1 M^−1 (×10^2) | 35 ± 0.5 | 40000 ± 4000 | 8900 ± 70 s^−1 M^−1 (×10^2) | 25 ± 1.5 | 25000 ± 763 | 2200 ± 130 s^−1 M^−1 (×10^2) | 33 ± 0.5 | 70000 ± 1290 | 10200 ± 220 s^−1 M^−1 (×10^2) | 30 ± 1.0 | 65000 ± 1100 | 9200 ± 45 s^−1 M^−1 (×10^2) | – | – | – | – | – | – | K m (CATPO T188I variant): 31 ± 0.5 mM; V max (CATPO E484I variant [9]): 50000 ± 1988 mM/min; k cat/K m (CATPO E484I variant [9]): 8800 ± 72 s^−1 M^−1 (×10^2); K m (CATPO E484I variant [9]): 30 ± 1.0 mM; V max (CATPO T188A variant [10]): 22500 ± 1000 mM/min; k cat/K m (CATPO T188A variant [10]): 2000 ± 120 s^−1 M^−1 (×10^2); K m (CATPO T188A variant [10]): 33 ± 0.5 mM; V max (CATPO E484A variant [14]): 88000 ± 880 mM/min; k cat/K m (CATPO E484A variant [14]): 14500 ± 130 s^−1 M^−1 (×10^2); K m (CATPO E484A variant [14]): 30 ± 1.0 mM |
| T188F (Mycothermus thermophilus; T207F) (protein, recombinant, pET-28-TEV-CATPO; contains heme b; Rz 0.8) TCPFADPAALYSRQDTTSGQSPLAAYEVDDSTGYLTSDVGGPIQDQTSLKAGIRGPTLLEDFMFRQKIQHFDHERVPERAVHARGAGAHGTFTSYADWSNITAASFLNATGKQTPVFVRFSTVAGSRGSADTARDVHGFATRFYTDEGNFDIVGNNIPVFFIQDAIQFPDLIHSVKPRPDNEIPQAAFAHDSAWDFFSQQPSTMHTLFWAMSGHGIPRSYRHMDGFGVHTFRFVKDDGSSKLIKWHFKSRQGKASLVWEEAQVLSGKNADFHRQDLWDAIESGNGPEWDVCVQIVDESQAQAFGFDLLDPTKIIPEEYAPLTKLGLLKLDRNPTNYFAETEQVMFQPGHIVRGIDFTEDPLLQGRLFSYLDTQLNRNGGPNFEQLPINMPRVPIHNNNRDGAGQMFIHRNKYPYTPNTLNSGYPRQANQNAGRGFFTAPGRTASGALVREVSPTFNDHWSQPRLFFNSLTPVEQQFLVNAMRFEISLVKSEEVKKNVLTQLNRVSHDVAVRVAAAIGLGAPDADDTYYHNNKTAGVSIVGSGPLPTIKTLRVGILATTSESSALDQAAQLRTRLEKDGLVVTVVAETLREGVDQTYSTADATGFDGVVVVDGAAALFASTASSPLFPTGRPLQIFVDAYRWGKPVGVCGGKSSEVLDAADVPEDGDGVYSEESVDMFVEEFEKGLATFRFTDRFALDS | – | – | – | – | – | – | – | – | – | – | – | – | – | – | 30 ± 1.0 | 1.02e+06 ± 22000 | 32 ± 1.0 | 42 ± 1.0 | 34 ± 0.4 | 45 ± 0.5 | kcat [15]: 30600 ± 1800 s⁻¹ |
| E484A (Mycothermus thermophilus; E503A) (protein, recombinant, pET-28-TEV-CATPO; contains heme b; Rz 0.8) TCPFADPAALYSRQDTTSGQSPLAAYEVDDSTGYLTSDVGGPIQDQTSLKAGIRGPTLLEDFMFRQKIQHFDHERVPERAVHARGAGAHGTFTSYADWSNITAASFLNATGKQTPVFVRFSTVAGSRGSADTARDVHGFATRFYTDEGNFDIVGNNIPVFFIQDAIQFPDLIHSVKPRPDNEIPQAATAHDSAWDFFSQQPSTMHTLFWAMSGHGIPRSYRHMDGFGVHTFRFVKDDGSSKLIKWHFKSRQGKASLVWEEAQVLSGKNADFHRQDLWDAIESGNGPEWDVCVQIVDESQAQAFGFDLLDPTKIIPEEYAPLTKLGLLKLDRNPTNYFAETEQVMFQPGHIVRGIDFTEDPLLQGRLFSYLDTQLNRNGGPNFEQLPINMPRVPIHNNNRDGAGQMFIHRNKYPYTPNTLNSGYPRQANQNAGRGFFTAPGRTASGALVREVSPTFNDHWSQPRLFFNSLTPVEQQFLVNAMRFAISLVKSEEVKKNVLTQLNRVSHDVAVRVAAAIGLGAPDADDTYYHNNKTAGVSIVGSGPLPTIKTLRVGILATTSESSALDQAAQLRTRLEKDGLVVTVVAETLREGVDQTYSTADATGFDGVVVVDGAAALFASTASSPLFPTGRPLQIFVDAYRWGKPVGVCGGKSSEVLDAADVPEDGDGVYSEESVDMFVEEFEKGLATFRFTDRFALDS | – | – | – | – | – | – | – | – | – | – | – | – | – | – | 30 ± 1.0 | 1.45e+06 ± 13000 | 33 ± 1.0 | 43 ± 1.2 | 33 ± 0.5 | 46 ± 1.0 | – |
| E484D (Mycothermus thermophilus; E503D) (protein, recombinant, pET-28-TEV-CATPO; contains heme d; Rz 0.8) TCPFADPAALYSRQDTTSGQSPLAAYEVDDSTGYLTSDVGGPIQDQTSLKAGIRGPTLLEDFMFRQKIQHFDHERVPERAVHARGAGAHGTFTSYADWSNITAASFLNATGKQTPVFVRFSTVAGSRGSADTARDVHGFATRFYTDEGNFDIVGNNIPVFFIQDAIQFPDLIHSVKPRPDNEIPQAATAHDSAWDFFSQQPSTMHTLFWAMSGHGIPRSYRHMDGFGVHTFRFVKDDGSSKLIKWHFKSRQGKASLVWEEAQVLSGKNADFHRQDLWDAIESGNGPEWDVCVQIVDESQAQAFGFDLLDPTKIIPEEYAPLTKLGLLKLDRNPTNYFAETEQVMFQPGHIVRGIDFTEDPLLQGRLFSYLDTQLNRNGGPNFEQLPINMPRVPIHNNNRDGAGQMFIHRNKYPYTPNTLNSGYPRQANQNAGRGFFTAPGRTASGALVREVSPTFNDHWSQPRLFFNSLTPVEQQFLVNAMRFDISLVKSEEVKKNVLTQLNRVSHDVAVRVAAAIGLGAPDADDTYYHNNKTAGVSIVGSGPLPTIKTLRVGILATTSESSALDQAAQLRTRLEKDGLVVTVVAETLREGVDQTYSTADATGFDGVVVVDGAAALFASTASSPLFPTGRPLQIFVDAYRWGKPVGVCGGKSSEVLDAADVPEDGDGVYSEESVDMFVEEFEKGLATFRFTDRFALDS | – | – | – | – | – | – | – | – | – | – | – | – | – | – | 35 ± 0.5 | 210000 ± 10500 | 36 ± 0.1 | 46 ± 0.8 | 38 ± 0.5 | 53 ± 1.0 | kcat [15]: 7400 ± 296 s⁻¹ |
